Assay results published in US10899751B2, “Compounds, compositions, and methods for increasing CFTR activity” (Proteostasis Therapeutics, Inc., priority 2016, dated 2021).

Target: T1, ΔF508-CFTR (Homo sapiens, UniProt P13569, DEL508-508)
T1 construct: Primary lung epithelial cells homozygous for the Cystic Fibrosis-causing ΔF508 mutation were differentiated for a minimum of 4 weeks; endogenous in cells; host or cells: primary lung (bronchial) epithelial cells (hBE) homozygous for ΔF508, differentiated at an air-liquid interface
T1 sequence (P13569 with tags, fused parts or gaps DEL508-508): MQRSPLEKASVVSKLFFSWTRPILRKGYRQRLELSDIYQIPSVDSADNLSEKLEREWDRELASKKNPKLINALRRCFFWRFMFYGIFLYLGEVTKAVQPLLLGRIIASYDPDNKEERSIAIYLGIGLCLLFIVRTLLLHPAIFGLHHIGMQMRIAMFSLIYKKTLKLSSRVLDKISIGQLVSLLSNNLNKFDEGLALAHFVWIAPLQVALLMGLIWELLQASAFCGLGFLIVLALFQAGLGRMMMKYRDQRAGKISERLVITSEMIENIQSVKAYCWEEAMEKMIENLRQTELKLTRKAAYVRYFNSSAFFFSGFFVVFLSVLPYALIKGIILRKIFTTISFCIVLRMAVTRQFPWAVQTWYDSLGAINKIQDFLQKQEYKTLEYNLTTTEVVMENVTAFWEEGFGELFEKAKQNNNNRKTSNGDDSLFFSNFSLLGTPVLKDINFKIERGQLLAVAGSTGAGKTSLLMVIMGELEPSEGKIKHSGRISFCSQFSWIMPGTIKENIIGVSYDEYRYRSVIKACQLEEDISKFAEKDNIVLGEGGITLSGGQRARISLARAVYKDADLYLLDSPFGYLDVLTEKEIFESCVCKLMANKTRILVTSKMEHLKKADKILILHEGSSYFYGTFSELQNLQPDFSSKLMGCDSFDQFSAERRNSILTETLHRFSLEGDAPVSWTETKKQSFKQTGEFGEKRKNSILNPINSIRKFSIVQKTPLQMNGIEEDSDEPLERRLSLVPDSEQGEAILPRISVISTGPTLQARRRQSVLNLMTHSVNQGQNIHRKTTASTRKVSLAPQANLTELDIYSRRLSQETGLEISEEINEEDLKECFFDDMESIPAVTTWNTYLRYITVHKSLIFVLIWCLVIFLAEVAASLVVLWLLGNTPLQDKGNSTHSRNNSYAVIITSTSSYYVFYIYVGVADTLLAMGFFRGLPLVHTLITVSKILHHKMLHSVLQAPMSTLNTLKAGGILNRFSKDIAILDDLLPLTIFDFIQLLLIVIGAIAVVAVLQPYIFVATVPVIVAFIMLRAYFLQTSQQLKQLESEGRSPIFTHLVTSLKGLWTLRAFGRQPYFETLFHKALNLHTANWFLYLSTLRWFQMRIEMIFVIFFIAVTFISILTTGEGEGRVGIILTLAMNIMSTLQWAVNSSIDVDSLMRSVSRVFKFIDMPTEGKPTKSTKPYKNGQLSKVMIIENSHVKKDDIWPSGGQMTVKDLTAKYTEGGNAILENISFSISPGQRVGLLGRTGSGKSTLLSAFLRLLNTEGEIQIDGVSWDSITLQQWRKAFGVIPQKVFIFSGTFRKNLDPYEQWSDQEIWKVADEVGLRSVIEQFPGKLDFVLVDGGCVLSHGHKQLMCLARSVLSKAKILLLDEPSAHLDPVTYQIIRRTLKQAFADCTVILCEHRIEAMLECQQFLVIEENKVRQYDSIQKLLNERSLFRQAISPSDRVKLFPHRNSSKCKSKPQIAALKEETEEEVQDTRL
Test: hBE equivalent current (Ieq) assay
Assay type: cell-based
Conditions: primary lung epithelial cells homozygous for ΔF508, 24 h treatment; for Ieq Activity: compound at its EC50 and VX-809 at 3 uM; for EC50: AUC of equivalent chloride current after forskolin plus VX-770
Procedure: Primary lung epithelial cells homozygous for the Cystic Fibrosis-causing ΔF508 mutation were differentiated for a minimum of 4 weeks in an air-liquid interface on Costar 24 well HTS filter plates prior to the equivalent current (Ieq) measurements. Cells were apically mucus-washed for 30 minutes 24 h prior to treatment with compounds. The basolateral media was removed and replaced with media containing the compound of interest diluted to its final concentration from DMSO stocks. Treated cells were incubated at 37° C. and 5% CO2 for 24 hours. At the end of the treatment period, the media was changed to the Ieq experimental solution for 30 minutes before the experiment and plates are maintained in a CO2-free incubator during this period. The plates containing the cells were then placed in pre-warmed heating blocks at 36° C.±0.5 for 15 minutes before measurements are taken. The transepithelial voltage (VT) and conductance (GT) were measured using a custom 24 channel current clamp (TECC-24) with 24 well electrode manifold. The Ieq assay measurements were made following additions with standardized time periods: • 1. The baseline VT and GT values were measured for approximately 20 minutes. • 2. Benzamil was added to block ENaC for 15 minutes. • 3. Forskolin plus VX-770 were added to maximally activate ΔF508-CFTR for 27 minutes. • 4. Bumetanide was added to inhibit the NaK2Cl cotransporter and shut-off secretion of chloride.
The activity data captured was the area under the curve (AUC) for the traces of the equivalent chloride current. The AUC was collected from the time of the forskolin/VX-770 addition until the inhibition by bumetanide addition. Correction in response to compound treatment was scored as the increase in the AUC for compound-treated samples over that of vehicle-treated samples.
(** indicates activity ≥200% of VX-809 (3 uM) with compound at its EC50 and VX-809 at 3 uM; * indicates activity 100-200% of VX-809 (3 uM) with compound at its EC50 and VX-809 at 3 uM. ##indicates activity <100% of VX-809 (3 uM) with compound at its EC50 and VX-809 at 3 uM. In Table 2, an Ieq EC50 value of “A” indicates the compound's EC50 is ≤1 μM; an Ieq EC50 value of “B” indicates the compound's EC50 is between 1 and 10 μM; an Ieq EC50 value of “C” indicates the compound's EC50 is ≥10 μM.

| EC50 | Compound | Ieq Activity |
| --- | --- | --- |
| ≤ 1000 nM | O=C(NCCC(=O)N1CCC1)c1cc(-c2ccccc2)on1 [Example 12] | * (* indicates activity 100-200% of VX-809 (3 uM) with compound at its EC50 and VX-809 at 3 uM) |
| 1000 to 10000 nM | O=C(N[C@H]1C[C@H](C(=O)N2CCC2)C1)c1cc(-c2ccccc2)no1 [Example 4, N-((1r,3r)-3-(Azetidine-1-carbonyl)cyclobutyl)-3-phenylisoxazole-5-carboxamide] | ** (** indicates activity ≥200% of VX-809 (3 uM) with compound at its EC50 and VX-809 at 3 uM) |
| ≤ 1000 nM | O=C(N[C@H]1C[C@H](C(=O)N2CCC2)C1)c1cc(-c2ccc(F)cc2)on1 [Example 6] | * (* indicates activity 100-200% of VX-809 (3 uM) with compound at its EC50 and VX-809 at 3 uM) |
| ≤ 1000 nM | O=C(N[C@H]1C[C@H](C(=O)N2CCC2)C1)c1cc(-c2ccccc2)on1 [Example 2, N-((1r,3r)-3-(Azetidine-1-carbonyl)cyclobutyl)-5-phenylisoxazole-3-carboxamide] | ** (** indicates activity ≥200% of VX-809 (3 uM) with compound at its EC50 and VX-809 at 3 uM) |

Continued, molecule first:

| Compound | EC50 | Ieq Activity |
| --- | --- | --- |
| O=C(NCCCCC(=O)N1CCC1)c1cc(-c2ccccc2)on1 [Example 8] | ≤ 1000 nM | ## (##indicates activity <100% of VX-809 (3 uM) with compound at its EC50 and VX-809 at 3 uM) |
| CN1CCN(C(=O)CCCCNC(=O)c2cc(-c3ccccc3)on2)CC1 [Example 11] | ≤ 1000 nM | ## (##indicates activity <100% of VX-809 (3 uM) with compound at its EC50 and VX-809 at 3 uM) |
| O=C(NCCCC(=O)N1CCC1)c1cc(-c2ccc(F)cc2)on1 [Example 1, N-(4-(Azetidin-1-yl)-4-oxobutyl)-5-(4-fluorophenyl)isoxazole-3-carboxamide] | ≤ 1000 nM | ** (** indicates activity ≥200% of VX-809 (3 uM) with compound at its EC50 and VX-809 at 3 uM) |
| O=C(NCCCC(=O)N1CCC1)c1cc(-c2ccccc2)no1 [Example 3, N-(4-(Azetidin-1-yl)-4-oxobutyl)-3-phenylisoxazole-5-carboxamide] | 1000 to 10000 nM | * (* indicates activity 100-200% of VX-809 (3 uM) with compound at its EC50 and VX-809 at 3 uM) |
| CN1CCN(C(=O)CCCNC(=O)c2cc(-c3ccc(F)cc3)on2)CC1 [Example 10] | ≤ 1000 nM | ## (##indicates activity <100% of VX-809 (3 uM) with compound at its EC50 and VX-809 at 3 uM) |
